Results reported in ChEMBL document CHEMBL3046257, “Response of sweet maize (Zea mays L.) hybrids to halosulfuron” (Crop Prot, 2008).

How the values were obtained:
Type in all cases: organism-based
Zea mays [1] = assay: Toxicity in Zea mays Empire (maize) assessed as visible injury at 50 g ai/ha applied shortly post-emergence at three to five-leaf stage using backpack sprayer measured after 14 days; settings: in vivo, other, 336 h
Zea mays [2] = assay: Toxicity in Zea mays Empire (maize) assessed as visible injury at 25 g ai/ha applied shortly post-emergence at three to five-leaf stage using backpack sprayer measured after 14 days; settings: in vivo, other, 336 h
Zea mays [3] = assay: Toxicity in Zea mays Empire (maize) assessed as visible injury at 50 g ai/ha applied shortly post-emergence at three to five-leaf stage using backpack sprayer measured after 7 days; settings: in vivo, other, 168 h
Zea mays [4] = assay: Toxicity in Zea mays GH2298 (maize) assessed as visible injury at 50 g ai/ha applied shortly post-emergence at three to five-leaf stage using backpack sprayer measured after 28 days; settings: in vivo, other, 672 h
Zea mays [5] = assay: Toxicity in Zea mays GH2298 (maize) assessed as visible injury at 25 g ai/ha applied shortly post-emergence at three to five-leaf stage using backpack sprayer measured after 28 days; settings: in vivo, other, 672 h
Zea mays [6] = assay: Toxicity in Zea mays GH2298 (maize) assessed as visible injury at 25 g ai/ha applied shortly post-emergence at three to five-leaf stage using backpack sprayer measured after 14 days; settings: in vivo, other, 336 h
Zea mays [7] = assay: Toxicity in Zea mays GH2041 (maize) assessed as visible injury at 50 g ai/ha applied shortly post-emergence at three to five-leaf stage using backpack sprayer measured after 28 days; settings: in vivo, other, 672 h
Zea mays [8] = assay: Toxicity in Zea mays GH2041 (maize) assessed as visible injury at 25 g ai/ha applied shortly post-emergence at three to five-leaf stage using backpack sprayer measured after 28 days; settings: in vivo, other, 672 h
Zea mays [9] = assay: Toxicity in Zea mays GH2041 (maize) assessed as visible injury at 25 g ai/ha applied shortly post-emergence at three to five-leaf stage using backpack sprayer measured after 14 days; settings: in vivo, other, 336 h
Zea mays [10] = assay: Toxicity in Zea mays GG214 (maize) assessed as visible injury at 25 g ai/ha applied shortly post-emergence at three to five-leaf stage using backpack sprayer measured after 14 days; settings: in vivo, other, 336 h
Zea mays [11] = assay: Toxicity in Zea mays GG214 (maize) assessed as visible injury at 25 g ai/ha applied shortly post-emergence at three to five-leaf stage using backpack sprayer measured after 7 days; settings: in vivo, other, 168 h
Zea mays [12] = assay: Toxicity in Zea mays GG446 (maize) assessed as visible injury at 50 g ai/ha applied shortly post-emergence at three to five-leaf stage using backpack sprayer measured after 28 days; settings: in vivo, other, 672 h
Zea mays [13] = assay: Toxicity in Zea mays GG446 (maize) assessed as visible injury at 50 g ai/ha applied shortly post-emergence at three to five-leaf stage using backpack sprayer measured after 14 days; settings: in vivo, other, 336 h
Zea mays [14] = assay: Toxicity in Zea mays GG446 (maize) assessed as visible injury at 25 g ai/ha applied shortly post-emergence at three to five-leaf stage using backpack sprayer measured after 7 days; settings: in vivo, other, 168 h
Zea mays [15] = assay: Toxicity in Zea mays GH2041 (maize) assessed as visible injury at 25 g ai/ha applied shortly post-emergence at three to five-leaf stage using backpack sprayer measured after 7 days; settings: in vivo, other, 168 h
Zea mays [16] = assay: Toxicity in Zea mays GH2041 (maize) assessed as plant height at 25 g ai/ha applied shortly post-emergence at three to five-leaf stage using backpack sprayer measured after 21 days (Rvb =80 cm); settings: in vivo, other, 504 h
Zea mays [17] = assay: Toxicity in Zea mays GH2547 (maize) assessed as plant height at 50 g ai/ha applied shortly post-emergence at three to five-leaf stage using backpack sprayer measured after 21 days (Rvb =80 cm); settings: in vivo, other, 504 h
Zea mays [18] = assay: Toxicity in Zea mays GG446 (maize) assessed as plant height at 50 g ai/ha applied shortly post-emergence at three to five-leaf stage using backpack sprayer measured after 21 days (reference value: 85 cm); settings: in vivo, other, 504 h
Zea mays [19] = assay: Toxicity in Zea mays GH2547 (maize) assessed as visible injury at 25 g ai/ha applied shortly post-emergence at three to five-leaf stage using backpack sprayer measured after 7 days; settings: in vivo, other, 168 h
Zea mays [20] = assay: Toxicity in Zea mays GG214 (maize) assessed as visible injury at 50 g ai/ha applied shortly post-emergence at three to five-leaf stage using backpack sprayer measured after 28 days; settings: in vivo, other, 672 h
Zea mays [21] = assay: Toxicity in Zea mays GSS9299 (maize) assessed as marketable yield at 50 g ai/ha applied shortly post-emergence at three to five-leaf stage using backpack sprayer (reference value: 13.2 T/ha ); settings: in vivo, other
Zea mays [22] = assay: Toxicity in Zea mays GSS9299 (maize) assessed as marketable yield at 25 g ai/ha applied shortly post-emergence at three to five-leaf stage using backpack sprayer (reference value: 13.2 T/ha ); settings: in vivo, other
Zea mays [23] = assay: Toxicity in Zea mays GH2298 (maize) assessed as marketable yield at 50 g ai/ha applied shortly post-emergence at three to five-leaf stage using backpack sprayer (reference value: 16.9 T/ha ); settings: in vivo, other
Zea mays [24] = assay: Toxicity in Zea mays GSS9299 (maize) assessed as cob size at 25 g ai/ha applied shortly post-emergence at three to five-leaf stage using backpack sprayer (reference value: 292 g); settings: in vivo, other
Zea mays [25] = assay: Toxicity in Zea mays Empire (maize) assessed as cob size at 25 g ai/ha applied shortly post-emergence at three to five-leaf stage using backpack sprayer (reference value: 304 g); settings: in vivo, other
Zea mays [26] = assay: Toxicity in Zea mays GH2298 (maize) assessed as cob size at 25 g ai/ha applied shortly post-emergence at three to five-leaf stage using backpack sprayer (reference value: 307 g); settings: in vivo, other
Zea mays [27] = assay: Toxicity in Zea mays GH2041 (maize) assessed as cob size at 50 g ai/ha applied shortly post-emergence at three to five-leaf stage using backpack sprayer (reference value: 285 g); settings: in vivo, other
Zea mays [28] = assay: Toxicity in Zea mays GH2547 (maize) assessed as cob size at 50 g ai/ha applied shortly post-emergence at three to five-leaf stage using backpack sprayer (reference value: 315 g); settings: in vivo, other
Zea mays [29] = assay: Toxicity in Zea mays GSS9299 (maize) assessed as visible injury at 50 g ai/ha applied shortly post-emergence at three to five-leaf stage using backpack sprayer measured after 14 days; settings: in vivo, other, 336 h
Zea mays [30] = assay: Toxicity in Zea mays GH2684 (maize)assessed as visible injury at 25 g ai/ha applied shortly post-emergence at three to five-leaf stage using backpack sprayer measured after 14 days; settings: in vivo, other, 336 h
Zea mays [31] = assay: Toxicity in Zea mays GH2547 (maize) assessed as marketable yield at 50 g ai/ha applied shortly post-emergence at three to five-leaf stage using backpack sprayer (reference value: 16.7 T/ha ); settings: in vivo, other
Zea mays [32] = assay: Toxicity in Zea mays GH2547 (maize) assessed as marketable yield at 25 g ai/ha applied shortly post-emergence at three to five-leaf stage using backpack sprayer (reference value: 16.7 T/ha ); settings: in vivo, other
Zea mays [33] = assay: Toxicity in Zea mays GG446 (maize) assessed as cob size at 50 g ai/ha applied shortly post-emergence at three to five-leaf stage using backpack sprayer (reference value: 379 g); settings: in vivo, other

COc1cc(OC)nc(NC(=O)NS(=O)(=O)c2c(C(=O)O)c(Cl)nn2C)n1 [HALOSULFURON]
Activity (Zea mays [1]): 6%
Activity (Zea mays [2]): 3%
Activity (Zea mays [3]): 8%
Activity (Zea mays [4]): 1%
Activity (Zea mays [5]): 0%
Activity (Zea mays [6]): 2%
Activity (Zea mays [7]): 0%
Activity (Zea mays [8]): 0%
Activity (Zea mays [9]): 1%
Activity (Zea mays [10]): 0%
Activity (Zea mays [11]): 1%
Activity (Zea mays [12]): 0%
Activity (Zea mays [13]): 0%
Activity (Zea mays [14]): 0%
Activity (Zea mays [15]): 1%
Activity (Zea mays [16]): 76 cm
Activity (Zea mays [17]): 79 cm
Activity (Zea mays [18]): 82 cm
Activity (Zea mays [19]): 1%
Activity (Zea mays [20]): 1%
Crop_yield (Zea mays [21]): 12.8 tons/ha
Crop_yield (Zea mays [22]): 12.3 tons/ha
Crop_yield (Zea mays [23]): 15.7 tons/ha
Activity (Zea mays [24]): 301 g
Activity (Zea mays [25]): 299 g
Activity (Zea mays [26]): 315 g
Activity (Zea mays [27]): 267 g
Activity (Zea mays [28]): 312 g
Activity (Zea mays [29]): 2%
Activity (Zea mays [30]): 3%
Crop_yield (Zea mays [31]): 15.7 tons/ha
Crop_yield (Zea mays [32]): 16.2 tons/ha
Activity (Zea mays [33]): 387 g
